From patent US20080113347A1, “Method for the in Vitro Diagnosis and Prognosis of Demyelinating Diseases, and for the Development of Drugs Against Demyelinating Diseases” (priority 2003, published 2008) come the findings set out here.

Where “and” joins values, the source holds several entries; their conditions need not be identical. Identical values can stand only once.

The experiment has as its system dusp6 gene expression. Nature of the experiment: Real time quantitative RT-PCR of dusp6 expression in primary oligodendrocyte cultures. The class given is cell-based, rat. The settings on record: for Experimental dusp6 crossing points (Cp), single replicas: replicas 1 and 2; for Dusp6 overexpression values (Fold Change) with regard to the untreated control, Ratio: standardized to GAPDH. How it is done: The method used consists of reverse transcription of mRNA to cDNA and its subsequent amplification into a LightCycler equipment (Roche), using SYBR Green for the detection of the amplified product. Real time quantification is carried out, and it allows calculating the relative expression of the sequence in different samples in the linear amplification phase of the reaction.
Samples: Primary oligodendrocyte culture samples treated with AMPA were analyzed. The samples came from cultures different from those analyzed with DNA microarrays. 4 cultures were carried out:
control: untreated cultured oligodendrocytes
ampa 2: oligodendrocytes treated for 2 minutes with 10 μM AMPA and collected after treatment
ampa 10: oligodendrocytes treated for 10 minutes with 10 μM AMPA collected after treatment
ampa 15: oligodendrocytes treated for 15 minutes with 10 μM AMPA and collected 60 minutes later.
Real time quantitative RT-PCR. The total RNA of each one of the cultures was obtained by homogenizing the cells in TRIzol® Reagent (Life Technologies) following the supplier's recommendations. The resulting total RNA was cleaned with the RNeasy kit (QIAGEN) (Chomczynski P. et al., Anal. Biochem., 1987, 162: 156; Chomczynski P., Biotechniques, 1993, 15: 532). The total RNA samples were conserved at −80° C. from the moment they were obtained until they were used. The RNA was spectrophotometrically quantified and 5 μg of total RNA were digested with DNase (2 U/μl) of Ambion at a concentration of 2 U per μg of RNA, for 30 minutes at 37° C.
1 μg of RNA treated with DNAse as a starting material was used for the synthesis of the first cDNA strand with the reverse transcriptase enzyme SuperScript™ II RNase (Life Technologies), using an oligo-dT oligonucleotide as a primer which contained the sequence of the promoter of the phage T7 RNA polymerase. Aliquots of cDNA diluted to the working concentration were used.
Synthesized cDNA was amplified using specific primers of the rat dusp6 gene (SEQ ID NO: 1 and SEQ ID NO: 2), and of the gene encoding the rat protein glyceraldehyde 3-phosphate dehydrogenase, Genebank accession number NM_017008 (SEQ ID NO:21 and SEQ ID NO:22). Real time PCR reactions were prepared using the LightCycler-FastStart DNA master SYBR Green I kit (Roche) following the manufacturer's instructions. The amplification program consisted of […] for 10 min (“hot start”) followed by 45 95° C. cycles (denaturation) for 10 seconds, 60° C. (annealing) for 5 seconds, 72° C. (amplification and fluorescence acquisition) for 10 seconds. The melting curve analysis program consisted of a one-pulse cycle of 95° C., 65° C. for 15 seconds, and a 95° C. pulse during the amplification and acquisition step.
First, specificity of the PCR products was determined by analyzing the melting curves. Subsequently, as a relative measurement of gene expression, the ratio between the abundance of dusp6 transcribed mRNAs and the abundance of GAPDH transcribed mRNAS was calculated, and the data of the ratio was standardized in each one of the treated samples on the basis of control sample values. To calculate efficiency of the PCR reactions (dusp6 and GAPDH), a standard curve was constructed for each gene sequence carried out with cDNA serial dilutions. The template cDNA concentrations for the reactions on the standard curve were arbitrarily given the values 2×, 0.5×, 0.2× and 0.02×. The crossing point values for each one of the reactions were used to construct the standard curve: y=m×+b, where m is the slope and b is the intersection point of the line on the axis of ordinates. Starting RNA concentration values in each sample were obtained from the data of the line using the following formula: […]
The change rate at each point was obtained by dividing the concentration values standardized in comparison to the concentration values in the control.

Where [1] appears, read: 10 μM AMPA 2 minutes, collected after treatment.
Where [2] appears, read: 10 μM AMPA 10 minutes, collected after treatment.
[3] abbreviates: 10 μM AMPA 15 minutes, collected 60 minutes later.

In the case of `Cc1onc(O)c1CC(N)C(=O)O` (stereo not drawn) [AMPA, α-amino-3-hydroxy-5-methyl-4-isoxazolepropionic acid], the “Experimental dusp6 crossing points (Cp), Mean” value worked out at 30.5 under setting [1], 32.23 under setting [2] and 29.67 under setting [3]. Moreover, the “Experimental dusp6 crossing points (Cp), single replicas” value reads like this: under setting [1], 30.46 and 30.54; under setting [2], 32.15 and 32.31; under setting [3], 29.73 and 29.61. Moreover, the “Dusp6 overexpression values (Fold Change) with regard to the untreated control, Ratio” value by setting is: under setting [1], 1.7 fold; under setting [2], 0.9 fold; under setting [3], 2.7 fold.
